Measurements as given in patent US11104631B1, “Isopentenyl chalcone compound and preparation method thereof” (SOUTH CHINA BOTANICAL GARDEN, CHINESE ACADEMY OF SCIENCES, priority 2018, dated 2021).
pIC50: −log10 of the molar value.

Columns and labels:
[1] = DPPH radical scavenging assay; format: biochemical; conditions: 0.2 mM DPPH in ethanol, dark, room temperature, 30 minutes, absorbance at 517 nm; read-out: IC50 value against DPPH radicals
Description: DPPH is a stable free radical. When a free radical scavenger is present, light absorption of DPPH will be reduced when the single electron is scavenged, which allows to evaluate free radical scavenging ability of the substance and accordingly determine antioxidant ability thereof. The DPPH radical scavenging ability of the compound 2,2′,4,4′-tetrahydroxy-3′-(2″,3″-dihydroxy-3″-methylbutyl)chalcone was measured through the DPPH radical scavenging assay, so as to evaluate the antioxidant ability of the compound. The assay comprised the following steps: 1,1-Diphenyl-2-picrylhydrazyl (DPPH) was dissolved in absolute ethanol to obtain a solution with a concentration of 0.2 mM. The compound 2,2′,4,4′-tetrahydroxy-3′-(2″,3″-dihydroxy-3″-methylbutyl)chalcone was dissolved in absolute ethanol. 80 μL of the ethanol solution of 2,2′,4,4′-tetrahydroxy-3′-(2″,3″-dihydroxy-3″-methylbutyl)chalcone and 160 μL of the 0.2 mM DPPH ethanol solution were mixed and the mixture was placed in dark at room temperature for 30 minutes. Then, light absorbance at 517 nm was measured using a microplate reader (SpectraMax 190, Molecular Devices, USA), and Vc was employed as a positive control.

Solubility in methanol = format: physicochemical

pIC50 [1] | solubility in methanol (Solubility in methanol) | Structure (SMILES)
4.00 | – | O=C1O[C@H]([C@@H](O)CO)C(O)=C1O [Vc, vitamin C, reference compound]
4.56 | easily soluble in methanol | CC(C)(O)C(O)Cc1c(O)ccc(C(=O)/C=C/c2ccc(O)cc2O)c1O (stereo not drawn) [compound 1, 2,2′,4,4′-tetrahydroxy-3′-(2″,3″-dihydroxy-3″-methylbutyl)chalcone]
